Target: T1, B-Raf kinase (Homo sapiens, UniProt P15056)
T1 construct: purchased Upstate Biotechnology
Experiment: B-Raf kinase assay ([33P] incorporation into MEK1(K97R))
Assay type: biochemical
Settings: class symbols; 8 μM ATP; read-out: IC50 against B-Raf kinase
Method: Inhibition of kinase activity by a test compound disclosed herein was estimated by quantifying the amount of [^33P] incorporation of a substrate in the presence of the test compound. Standard assay conditions were 5 ng of recombinant B-Raf kinase (Upstate Biotechnology) with 500 ng MEK1(K97R) in assay buffer (8 μM ATP, 0.5 μCi [^33P]ATP (specific activity 3000 Ci/mmol, PerkinElmer), 50 mM Tris/HCl (pH7.5), and 1 mM EGTA, 1 mM Na3VO4, 1% 2-mercaptoethanol, 0.1% Brij 35, and 0.2 mg/ml BSA) in a final volume of 25 μL. Reactions were incubated at 30° C. for 30 min and stopped by adding 3% phosphoric acid, harvested onto a 96-well GF/B UniFilter (PerkinElmer) using a unifilter harvester (PerkinElmer), and counted with a TopCount microplate scintillation counter (PerkinElmer). The IC50 values of inhibitors were determined after carrying out assays at 3-fold serially diluted concentrations of each compound in duplication. The results were analyzed using linear regression software (GraphPad Prism 4; GraphPad Software Inc.).

T1 sequence (P15056 whole entry): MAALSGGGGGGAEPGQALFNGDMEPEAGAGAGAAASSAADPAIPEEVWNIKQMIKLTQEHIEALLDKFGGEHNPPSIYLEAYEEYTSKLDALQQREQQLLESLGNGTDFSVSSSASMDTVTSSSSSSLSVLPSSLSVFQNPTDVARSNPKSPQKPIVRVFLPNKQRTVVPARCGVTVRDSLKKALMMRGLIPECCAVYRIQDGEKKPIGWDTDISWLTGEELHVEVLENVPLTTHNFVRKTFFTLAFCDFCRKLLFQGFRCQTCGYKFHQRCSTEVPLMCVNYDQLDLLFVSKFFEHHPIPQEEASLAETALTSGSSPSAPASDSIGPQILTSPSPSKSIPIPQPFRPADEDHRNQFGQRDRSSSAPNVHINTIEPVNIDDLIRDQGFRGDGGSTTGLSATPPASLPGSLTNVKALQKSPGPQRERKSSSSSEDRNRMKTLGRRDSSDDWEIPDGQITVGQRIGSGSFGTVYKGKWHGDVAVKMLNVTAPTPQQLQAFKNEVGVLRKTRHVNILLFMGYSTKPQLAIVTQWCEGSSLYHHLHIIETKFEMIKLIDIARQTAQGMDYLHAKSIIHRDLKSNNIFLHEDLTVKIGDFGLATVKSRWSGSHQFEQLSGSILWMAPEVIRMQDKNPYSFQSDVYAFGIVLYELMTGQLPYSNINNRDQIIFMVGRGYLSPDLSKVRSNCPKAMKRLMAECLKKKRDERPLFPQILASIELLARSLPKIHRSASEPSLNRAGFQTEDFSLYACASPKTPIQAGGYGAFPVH

Row | Compound | IC50 [µM]
1 | CC(C)S(=O)(=O)Nc1ccc(F)c(Nc2ncnc3ccc(-c4cccnc4F)cc23)c1F [compound 20, N-(2,4-difluoro-3-(6-(2-fluoropyridin-3-yl)quinazolin-4-ylamino)phenyl)propane-2-sulfonamide] | 1 to 10
2 | CS(=O)(=O)Nc1ccc(F)c(Nc2ncnc3ccc(-c4cccnc4F)cc23)c1F [compound 10, N-(2,4-difluoro-3-(6-(2-fluoropyridin-3-yl)quinazolin-4-ylamino)phenyl)methanesulfonamide] | 1 to 10
3 | CCCS(=O)(=O)Nc1ccc(F)c(Nc2ncnc3cc(OC)c(-c4ccncc4)cc23)c1F [compound 30, N-(2,4-difluoro-3-(7-methoxy-6-(pyridin-4-yl)quinazolin-4-ylamino)phenyl)propane-1-sulfonamide] | 1 to 10
4 | CCCS(=O)(=O)Nc1c(F)ccc(Nc2ncnc3ccc(-c4ccncc4)cc23)c1F [compound 17, N-(2,6-difluoro-3-(6-(pyridin-4-yl)quinazolin-4-ylamino)phenyl)propane-1-sulfonamide] | 1 to 10
5 | CCCS(=O)(=O)Nc1ccc(F)c(Nc2ncnc3ccc(-c4ccc(OCCOC)nc4)cc23)c1F [compound 33, N-(2,4-difluoro-3-(6-(6-(2-methoxyethoxy)pyridin-3-yl)quinazolin-4-ylamino)phenyl)propane-1-sulfonamide] | 0.3 to 1
6 | CCCS(=O)(=O)Nc1ccc(F)c(Nc2ncnc3ccc(-c4cccnc4F)cc23)c1 [compound 6, N-(4-fluoro-3-(6-(2-fluoropyridin-3-yl)-quinazolin-4-ylamino)phenyl)propane-1-sulfonamide] | 1 to 10
7 | CCCS(=O)(=O)Nc1ccc(F)c(Nc2ncnc3ccc(-c4cccnc4OC)cc23)c1F [compound 23, N-(2,4-difluoro-3-(6-(2-methoxypyridin-3-yl)quinazolin-4-ylamino)phenyl)propane-1-sulfonamide] | 1 to 10
8 | CCS(=O)(=O)Nc1ccc(F)c(Nc2ncnc3ccc(-c4cccnc4F)cc23)c1F [compound 19, N-(2,4-difluoro-3-(6-(2-fluoropyridin-3-yl)quinazolin-4-ylamino)phenyl)ethanesulfonamide] | 1 to 10
9 | CCCS(=O)(=O)Nc1ccc(F)c(Nc2ncnc3ccc(-c4ccc[nH]c4=O)cc23)c1F [compound 26, N-(2,4-difluoro-3-(6-(2-oxo-1,2-dihydropyridin-3-yl)quinazolin-4-ylamino)phenyl)propane-1-sulfonamide] | 1 to 10

Results, then the compound that gave them:

Row | IC50 [µM] | Compound
10 | 0.3 to 1 | CCCS(=O)(=O)Nc1ccc(F)c(Nc2ncnc3ccc(-c4cccnc4F)c(F)c23)c1F [compound 56, N-(2,4-difluoro-3-(5-fluoro-6-(2-fluoropyridin-3-yl)quinazolin-4-ylamino)phenyl)propane-1-sulfonamide]
11 | 1 to 10 | CCCS(=O)(=O)Nc1ccc(F)c(Nc2ncnc3ccc(-n4ccnc4)cc23)c1F [compound 43, N-(3-(6-(1H-imidazol-1-yl)quinazolin-4-ylamino)-2,4-difluorophenyl)propane-1-sulfonamide]
12 | 0.3 to 1 | CCCS(=O)(=O)Nc1ccc(F)c(Nc2ncnc3ccc(-c4cnc(OC)c(N)c4)cc23)c1F [compound 60, N-(3-(6-(5-amino-6-methoxypyridin-3-yl)quinazolin-4-ylamino)-2,4-difluorophenyl)propane-1-sulfonamide]
13 | 0.3 to 1 | CCCS(=O)(=O)Nc1ccc(F)c(Nc2ncnc3ccc(-c4cnc(N)c(C)c4)cc23)c1F [compound 67, N-(3-(6-(6-amino-5-methylpyridin-3-yl)quinazolin-4-ylamino)-2,4-difluorophenyl)propane-1-sulfonamide]
14 | 0.3 to 1 | CCCS(=O)(=O)Nc1ccc(F)c(Nc2ncnc3ccc(-c4cccnc4C#N)cc23)c1F [compound 64, N-(3-(6-(2-cyanopyridin-3-yl)quinazolin-4-ylamino)-2,4-difluorophenyl)propane-1-sulfonamide]
15 | 0.3 to 1 | CCCS(=O)(=O)Nc1ccc(F)c(Nc2ncnc3ccc(-c4cncc(C(F)(F)F)c4)cc23)c1F [compound 65, N-(2,4-difluoro-3-(6-(5-(trifluoromethyl)pyridin-3-yl)quinazolin-4-ylamino)phenyl)propane-1-sulfonamide]
16 | 0.3 to 1 | CCCS(=O)(=O)Nc1ccc(F)c(Nc2ncnc3ccc(-c4cccc(N5CCOCC5)n4)cc23)c1F [compound 41, N-(2,4-difluoro-3-(6-(6-morpholinopyridin-2-yl)quinazolin-4-ylamino)phenyl)propane-1-sulfonamide]
17 | 0.3 to 1 | CCCS(=O)(=O)Nc1ccc(F)c(Oc2ncnc3ccc(-c4cccnc4F)cc23)c1F [compound 34, N-(2,4-difluoro-3-(6-(2-fluoropyridin-3-yl)-quinazolin-4-yloxy)phenyl)propane-1-sulfonamide]
18 | 1 to 10 | C#Cc1ccc2ncnc(Nc3c(F)ccc(NS(=O)(=O)CCC)c3F)c2c1 [compound 49, N-(3-(6-ethynylquinazolin-4-ylamino)-2,4-difluorophenyl)propane-1-sulfonamide]
19 | 0.3 to 1 | CCCS(=O)(=O)Nc1ccc(F)c(Nc2ncnc3ccc(-c4cccc(N)n4)cc23)c1F [compound 61, N-(3-(6-(6-aminopyridin-2-yl)quinazolin-4-ylamino)-2,4-difluorophenyl)propane-1-sulfonamide]
20 | 1 to 10 | CCCS(=O)(=O)Nc1ccc(F)c(Nc2ncnc3ccc(N4CCOCC4)cc23)c1F [compound 42, N-(2,4-difluoro-3-(6-morpholinoquinazolin-4-ylamino)phenyl)propane-1-sulfonamide]
21 | 0.3 to 1 | CCCS(=O)(=O)N(C)c1ccc(F)c(N(C)c2ncnc3ccc(-c4cccnc4F)cc23)c1F [compound 53, N-(2,4-difluoro-3-((6-(2-fluoropyridin-3-yl)-quinazolin-4-yl)(methyl)amino)phenyl)-N-methylpropane-1-sulfonamide]

Same assay, conditions: given as bound; 8 μM ATP; read-out: IC50 against B-Raf kinase

Row | Compound | IC50 [µM]
22 | CCCS(=O)(=O)Nc1c(F)ccc(Nc2ncnc3ccc(-c4cccnc4F)cc23)c1F [compound 16, N-(2,6-difluoro-3-(6-(2-fluoropyridin-3-yl)quinazolin-4-ylamino)phenyl)propane-1-sulfonamide] | > 10
23 | CCCS(=O)(=O)Nc1ccc(F)c(Nc2ncnc3ccc(-c4cccnc4)cc23)c1F [compound 5, N-(2,4-difluoro-3-(6-(pyridin-3-yl)-quinazolin-4-ylamino)phenyl)propane-1-sulfonamide] | > 10
24 | CCCS(=O)(=O)Nc1ccc(F)c(Nc2ncnc3cc(NCCN(C)C)c(-c4ccncc4)cc23)c1F [compound 22, N-(3-(7-(2-(dimethylamino)ethylamino)-6-(pyridin-4-yl)quinazolin-4-ylamino)-2,4-difluorophenyl)propane-1-sulfonamide] | > 10
25 | CCCS(=O)(=O)Nc1cc(Nc2ncnc3ccc(-c4cccnc4F)cc23)c(F)cc1F [compound 11, N-(2,4-difluoro-5-(6-(2-fluoropyridin-3-yl)-quinazolin-4-ylamino)phenyl)propane-1-sulfonamide] | > 10

Results, then the compound that gave them:

Row | IC50 [µM] | Compound
26 | > 10 | CCCS(=O)(=O)Nc1ccc(F)c(Nc2ncnc3ccc(-c4c[nH]nn4)cc23)c1F [compound 52, N-(3-(6-(1H-1,2,3-triazol-4-yl)quinazolin-4-ylamino)-2,4-difluorophenyl)propane-1-sulfonamide]
27 | > 10 | CCCS(=O)(=O)Oc1ccc(F)c(Nc2ncnc3ccc(-c4cccnc4F)cc23)c1F [compound 40, 2,4-difluoro-3-(6-(2-fluoropyridin-3-yl)quinazolin-4-ylamino)phenyl propane-1-sulfonate]
28 | > 10 | CCCS(=O)(=O)Nc1ccc(F)c(Nc2ncnc3ccc(-n4cnc5ccccc54)cc23)c1F [compound 47, N-(3-(6-(1H-benzo[d]imidazol-1-yl)-quinazolin-4-ylamino)-2,4-difluorophenyl)propane-1-sulfonamide]
29 | > 10 | O=S1(=O)CCCN1c1ccc(F)c(Nc2ncnc3ccc(-c4cccnc4F)cc23)c1F [compound 55, N-(2,4-difluoro-3-(6-(2-fluoropyridin-3-yl)quinazolin-4-ylamino)phenyl)propanesultam]

— patent US9321762B2, “Quinazoline compounds, method for preparing the same and use thereof” (DEVELOPMENT CENTER FOR BIOTECHNOLOGY, priority 2013, dated 2016)
